In patent publication US20240270758A1, “PYRIDINO-OR PYRIMIDO-CYCLIC COMPOUND, PREPARATION METHOD THEREFOR AND MEDICAL USE THEREOF” (Genfleet Therapeutics (Shanghai) Inc., priority 2021, published 2024):

Legend:
[1] = target: KRAS^G12D mutant protein binding to RBD region fragment of RAF1 protein (Homo sapiens (Human), UniProt P01116, G12D); assay: KRAS-RAF1 binding assay (HTRF), KRAS G12D; conditions: His-KRAS^G12D, GST-RAF1-RBD, GTP
Procedure: (§1) GST-RAF1-RBD was purchased from BPS Bioscience; Cat. NO.: 100519; KRAS^G12D was purchased from BPS Bioscience; Cat. NO.: 100623; KRAS^wt was purchased from Reactionbiology; GTP was purchased from Sigma; Cat. NO.: G8877; Mab Anti GST-XL665 was purchased from cisbio; Cat. NO.: 61GSTXLF; Eu-W1024-anti-6×HIS was purchased from PE; Cat. NO.: AD0111; ProxiPlate-384-Plates was purchased from PerkinElmer; Cat. NO.: 6008289; DMSO was purchased from VWR AMRESCO; Cat. NO.: 0231-500ML; microplate reader was purchased from PerkinElmer; Cat. NO.: Envison;
(§2) This experiment is intended to investigate the inhibitory effect of compounds on the binding of KRAS^G12D mutant protein or KRAS^Wt (wild type) protein to fragments of the RBD region fragment of RAF1 protein. A 500×3-fold gradient concentration stock of compound was prepared using DMSO and diluted 50-fold into a 10× stock of compound using reaction buffer. To the reaction wells of an ELISA plate (ProxiPlate-384-Plates), was first added 3 µL of His-KRAS^G12D protein or KRAS^wt protein, then added 1 μL of 200 µM GTP and incubated for 30 min, then added 2 μL of 10× compound or reaction buffer with 2% DMSO (positive control) and incubated for 30 min, then added 4 μL of GST-RAF1-RBD protein or reaction buffer (negative control) and incubated for 15 min, then added […] anti-His antibody and XL665-labeled anti-GST antibody mixed well in advance and incubated for 60 min before reading HTRF signal by microplate reader. The inhibition ratio of compounds on KRAS protein (G12D mutant or wild type) and RAF1 binding was calculated IR (%)=(positive control signal-compound well signal)/(positive control signal-negative control signal)×100% and IC50 values were calculated by fitting compound concentrations and corresponding inhibition ratios using the Prism 8 four-parameter method. […] While the inhibition IC50 values of the compounds on the binding of KRAS^wt (wild type) protein to the RBD region fragment of RAF1 protein was more than 40 nM or 100 nM, or more than 500 nM, or even more than 1 μM or 2 μM.

[2] = test system: AGS cells (KRAS^G12D mutation); assay: Cell proliferation inhibition assay (3D, CellTiter-Glo), AGS; format: cell-based, human; conditions: 3D cell model, 5 days
In short: (§3)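 3D spheroids of AsPC-1 (800 cells/well, RPMI-1640) or AGS (400 cells/well, F-12K), 10% FBS, seeded overnight, then exposed 5 days to 3.16-fold compound dilutions (0.1% DMSO final). CellTiter-Glo 3D luminescence gives inhibition relative to DMSO and medium blanks; IC50 from four-parameter fit.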

[3] = test system: AsPC-1 cells (KRAS^G12D mutation); assay: Cell proliferation inhibition assay (3D, CellTiter-Glo), AsPC-1; format: cell-based, human; conditions: 3D cell model, 5 days
In short: as §3

[4] = test system: p-ERK in AGS cells (KRAS^G12D mutation); assay: Cell p-ERK detection assay; format: cell-based, human; conditions: 3 h incubation, HTRF
In short: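 AGS cells (KRAS G12D, ~20,000/well in F12K+10% FBS) treated next day with compound at 3.16-fold dilutions, 0.1% DMSO final, for 3 h. Lysates assayed for ERK phospho-T202/Y204 by HTRF after 4 h; inhibition vs DMSO and blank, IC50 from four-parameter fit.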

[5] = target: KRAS^wt (wild type) protein binding to RBD region fragment of RAF1 protein (Homo sapiens (Human), UniProt P01116); assay: KRAS-RAF1 binding assay (HTRF), KRAS wild type; conditions: GST-RAF1-RBD, GTP
KRAS^wt (wild type) protein binding to RBD region fragment of RAF1 protein, sequence (P01116-2 other isoform, or with tags, fused parts or gaps): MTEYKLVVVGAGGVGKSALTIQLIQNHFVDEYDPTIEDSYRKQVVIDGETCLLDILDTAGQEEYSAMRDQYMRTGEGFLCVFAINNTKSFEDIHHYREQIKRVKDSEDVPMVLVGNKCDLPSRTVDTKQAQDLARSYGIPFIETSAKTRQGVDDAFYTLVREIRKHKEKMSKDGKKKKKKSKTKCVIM
Procedure: as §1, §2

[6] = Mice pharmacokinetic evaluation experiment; format: in vivo; conditions: male, ICR, mouse, mice plasma; for Vd / half-life: IV 1 mg/kg; for AUC / Cmax: PO 100 mg/kg
From the text: Purpose of the experiment: male ICR mice were used as test animals to determine the drug concentration in plasma at different time points after intravenous and intragastric administration of test compounds by LC/MS/MS method. The pharmacokinetic behavior of the test compound in mice was studied to evaluate its pharmacokinetic characteristics.
Experimental protocol: laboratory animals: twelve healthy adult male ICR mice, weighing about 30 g, were randomly divided into two groups, 6 mice in IV group and 6 mice in PO group, N=3/time point, with semi-continuous blood collection. Animals were purchased from Vital River Laboratory Animal Technology Co., Ltd.
Drug preparation: IV group: taking 10 mL sample solution as an example, weighing 2 mg sample, followed by adding 0.5 mL DMSO, […], then adding […] HP-β-CD, finally dilute to 10 mL with water, stirring and ultrasound to reach 0.2 mg/mL clear state. PO group: weighing an appropriate amount of samples and preparing them according to the solvent ratio of the IV group, and evenly reaching the state of 10 mg/mL after stirring and ultrasound. Administration: after fasting for one night, intravenous administration was performed in the IV group, with an administration volume of 5 mL/kg and a dose of 1 mg/kg: the PO group was administered intragastrically a dose volume of 10 mL/kg and a dose of 100 mg/kg.
Experimental operation: after the test compounds were administered to the male ICR mice in the intravenous injection group and the intragastric administration group, the blood 110 ul were collected at time points of 0.25, 0.5, 1, 2, 4, 7, and 24 h, and stored in a commercial anticoagulant tube pre-filled with K2EDTA. The plasma was separated by centrifugation for 15 min and stored at −70° C. Animals were fed 4 h after administration. The plasma levels of test compounds following intravenous and intragastric administration in mice were determined by LC/MS/MS method. The linear range of the method was 1-3000 ng/ml; Plasma samples were analyzed after treatment with acetonitrile precipitated protein.

KRAS^G12D mutant protein binding to RBD region fragment of RAF1 protein, sequence (P01116-2 other isoform, or with tags, fused parts or gaps G12D): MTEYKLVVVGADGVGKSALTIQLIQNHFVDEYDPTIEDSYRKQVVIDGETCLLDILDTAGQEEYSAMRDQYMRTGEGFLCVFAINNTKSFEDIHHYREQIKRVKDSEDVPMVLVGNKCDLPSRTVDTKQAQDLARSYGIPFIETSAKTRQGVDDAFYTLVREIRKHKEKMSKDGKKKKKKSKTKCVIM

| Compound | IC50 [1] [nM] | IC50 ([2]; Homo sapiens, AGS, 120 h) [nM] | IC50 ([3]; Homo sapiens, ASPC1, 120 h) [nM] | IC50 ([4]; Homo sapiens, AGS, 3 h) [nM] | IC50 [5] [nM] | Vd [6] [L/kg] | half-life [6] [h] | AUC [6] [ng·h/mL] | Cmax [6] [ng/mL] | IC50 [2] [nM] | IC50 [3] [nM] | IC50 [4] [nM] |
| --- | --- | --- | --- | --- | --- | --- | --- | --- | --- | --- | --- | --- |
| C#Cc1c(F)ccc2cc(O)cc(-c3ccc4c(N5C[C@H]6CC[C@@H](C5)N6)nc(OCC56CCCN5CCC6)nc4c3F)c12 [Example Z9, 4-(4-((1R,5S)-3,8-diazabicyclo[3.2.1]octan-3-yl)-8-fluoro-2-((tetrahydro-1H-pyrrolizin-7a(5H)-yl)methoxy)quinazolin-7-yl)-5-ethynyl-6-fluoronaphthalen-2-ol] | 79.6 | 145 | 300 | 23.7 | 261 |  |  |  |  |  |  |  |
| C#Cc1c(F)ccc2cc(O)cc(-c3ncc4c(N5C[C@H]6CC[C@@H](C5)N6)nc(OCC56CC(=C)CN5CC(=C)C6)nc4c3F)c12 [Example Z194, 4-(4-((1R,5S)-3,8-diazabicyclo[3.2.1]octan-3-yl)-2-((2,6-dimethylenetetrahydro-1H-pyrrolizin-7a(5H)-yl)methoxy)-8-fluoropyrido[4,3-d]pyrimidin-7-yl)-5-ethynyl-6-fluoronaphthalen-2-ol] |  | 1.4 | 4.6 | 0.69 |  | 16.9 | 11.2 | 2840 | 560 |  |  |  |
| C#Cc1cccc2cc(O)cc(-c3ncc4c(N5C[C@H]6CC[C@@H](C5)N6)nc(OCC56CCCN5CC(=CF)C6)nc4c3F)c12 (stereo partly drawn) [Example Z5, 4-(4-((1R,5S)-3,8-diazabicyclo[3.2.1]octan-3-yl)-8-fluoro-2-((2-(fluoromethylene)tetrahydro-1H-pyrrolizin-7a(5H)-yl)methoxy)pyrido[4,3-d]pyrimidin-7-yl)-5-ethynylnaphthalen-2-ol] | 36.3 | 4.5 | 29.4 | 1.16 | 43.7 |  |  |  |  |  |  |  |
| C#Cc1c(F)ccc2cc(O)cc(-c3ncc4c(N5CC6CCC(C5)N6)nc(OC[C@@]56CCCN5C[C@H](F)C6)nc4c3F)c12 [MRTX1133, reference compound] |  |  |  |  |  | 14.1 | 5.15 | 745 | 279 |  |  |  |
| C#Cc1c(F)ccc2cc(O)cc(-c3ncc4c(N5C[C@H]6CC[C@@H](C5)N6)nc(OC[C@]56CCCN5CC(=C)C6)nc4c3F)c12 (single isomer, unassigned) [Example Z13] | 53.6 | 13 | 67.2 | 11 | 101 |  |  |  |  |  |  |  |
| C#Cc1cccc2cc(O)cc(-c3ncc4c(N5C[C@H]6C=C[C@@H](C5)N6)nc(OCC56CCCN5CC(F)(F)C6)nc4c3F)c12 (stereo partly drawn) [Example Z15, 4-(4-((1R,5S)-3,8-diazabicyclo[3.2.1]oct-6-en-3-yl)-2-((2,2-difluorotetrahydro-1H-pyrrolizin-7a(5H)-yl)methoxy)-8-fluoropyrido[4,3-d]pyrimidin-7-yl)-5-ethynylnaphthalen-2-ol] | 33 | 194 | 947 | 60.7 | > 3000 |  |  |  |  |  |  |  |
| C#Cc1cccc2cc(O)cc(-c3ncc4c(N5C[C@H]6CC[C@@H](C5)N6)nc(OCC56CCCN5CC(=C(C)C)C6)nc4c3F)c12 (stereo partly drawn) [Example Z14, 4-(4-((1R,5S)-3,8-diazabicyclo[3.2.1]octan-3-yl)-8-fluoro-2-((2-(propan-2-ylidene)tetrahydro-1H-pyrrolizin-7a(5H)-yl)methoxy)pyrido[4,3-d]pyrimidin-7-yl)-5-ethynylnaphthalen-2-ol] | 39.6 | 27.4 | 143 | 10.1 | 110 |  |  |  |  |  |  |  |
| C#Cc1cccc2cc(O)cc(-c3c(F)cc4c(N5C[C@H]6CC[C@@H](C5)N6)nc(OCC56CCCN5CC(=C)C6)nc4c3F)c12 (stereo partly shown) [Example Z20] | 105 |  |  |  | 110 |  |  |  |  | 7.7 | 9.3 | 2.86 |
| C=C1CN2CCCC2(COc2nc(N3C[C@H]4CC[C@@H](C3)N4)c3cnc(-c4cc(O)cc5cccc(CC)c45)c(F)c3n2)C1 (stereo partly drawn) [Example Z11, 4-(4-((1R,5S)-3,8-diazabicyclo[3.2.1]octan-3-yl)-8-fluoro-2-((2-methylenetetrahydro-1H-pyrrolizin-7a(5H)-yl)methoxy)pyrido[4,3-d]pyrimidin-7-yl)-5-ethylnaphthalen-2-ol] | 45.9 | 2.5 | 50.6 | 4.91 | 263 |  |  |  |  |  |  |  |
| C#Cc1cccc2cc(O)cc(-c3ncc4c(N5C[C@H]6CC[C@@H](C5)N6)nc(OCC56CCCN5CC=C6CC)nc4c3F)c12 (stereo partly drawn) [Example Z16, 4-(4-((1R,5S)-3,8-diazabicyclo[3.2.1]octan-3-yl)-2-((7-ethyl-2,3-dihydro-1H-pyrrolizin-7a(5H)-yl)methoxy)-8-fluoropyrido[4,3-d]pyrimidin-7-yl)-5-ethynylnaphthalen-2-ol] | 60.7 | 92.6 | 555 | 54.9 | > 1000 |  |  |  |  |  |  |  |
| C#Cc1c(F)ccc2cc(O)cc(-c3ncc4c(N5C[C@H]6CC[C@@H](C5)N6)nc(OCC56CCCN5CC(=C)C6)nc4c3F)c12 (stereo partly shown) [Example Z3] | 16.2 |  |  |  | 64.5 |  |  |  |  | 3 | 16 | 2.11 |
| C#Cc1cccc2cc(O)cc(-c3ncc4c(N5C[C@H]6C=C[C@@H](C5)N6)nc(OC[C@@]56CCCN5C[C@H](F)C6)nc4c3F)c12 [Example Z7, 4-(4-((1R,5S)-3,8-diazabicyclo[3.2.1]oct-6-en-3-yl)-8-fluoro-2-(((2R,7aS)-2-fluorotetrahydro-1H-pyrrolizin-7a(5H)-yl)methoxy)pyrido[4,3-d]pyrimidin-7-yl)-5-ethynylnaphthalen-2-ol] | 72.6 | 32.6 | 433 | 12 | 1030 |  |  |  |  |  |  |  |
